Measured values from patent US7998978B2 (Pfizer Inc., priority 2006, dated 2011).

These compounds were tested against T1, JNK1α1 (Homo sapiens, UniProt P45983) (assay: Coupled spectrophotometric (PK/LDH) JNK1α1 assay: % inhibition and Ki determination). Settings: @1 uM; read-out: % Inhibition JNK-1.
T1 construct: catalytic domain containing amino acids 1-364 and N-terminal hexahistidine tag; hexahistidine (His6) (N); made in house; host or cells: E. coli BL21 (DE3)
Assay type: biochemical
Summary of the method: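 Initial rates were taken from the absorbance decrease at 340 nm at 30° C. Ki was fitted with a tight-binding model over 11 concentrations (top 100 μM); single-point inhibition was tested at 1 or 10 μM.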

T1 sequence (P45983 1-364): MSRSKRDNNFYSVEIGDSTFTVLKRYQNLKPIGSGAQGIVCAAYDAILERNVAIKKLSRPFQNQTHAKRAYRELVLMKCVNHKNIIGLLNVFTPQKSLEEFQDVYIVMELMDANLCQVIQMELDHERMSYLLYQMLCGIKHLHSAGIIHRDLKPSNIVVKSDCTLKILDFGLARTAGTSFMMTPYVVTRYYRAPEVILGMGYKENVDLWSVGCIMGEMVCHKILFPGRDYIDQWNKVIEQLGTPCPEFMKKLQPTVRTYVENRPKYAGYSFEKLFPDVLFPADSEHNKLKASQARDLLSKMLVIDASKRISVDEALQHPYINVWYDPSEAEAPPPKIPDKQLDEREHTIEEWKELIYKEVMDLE

inhibition at 1 µM	SMILES
12%	CC(NC(=O)c1cccc2cnc(N[C@H]3CC[C@H](O)CC3)nc12)c1ccncn1 (stereo partly drawn) [Example 492, 2-[(trans-4-hydroxycyclohexyl)amino]-N-(1-pyrimidin-4-ylethyl)quinazoline-8-carboxamide]
9%	Cc1cc(NC(=O)c2cccc3cnc(N[C@H]4CC[C@H](O)CC4)nc23)n(-c2ccccn2)n1 [Example 325, 2-[(trans-4-hydroxycyclohexyl)amino]-N-(3-methyl-1-pyridin-2-yl-1H-pyrazol-5-yl)quinazoline-8-carboxamide]
11%	O=C(NCCO)c1ccc2cnc(NC3CCC3)nc2c1 [Example 430, 2-(cyclobutylamino)-N-(2-hydroxyethyl)quinazoline-7-carboxamide]
11%	Cc1cccc(CC(C)NC(=O)c2cccc3cnc(N[C@H]4CC[C@H](O)CC4)nc23)n1 (stereo partly drawn) [Example 475, 2-[(trans-4-hydroxycyclohexyl)amino]-N-[1-methyl-2-(6-methylpyridin-2-yl)ethyl]quinazoline-8-carboxamide]

Same assay, conditions: @10 uM; read-out: % Inhibition JNK-1

inhibition at 10 µM	SMILES
43%	COc1ccc(CNc2cc3cc(-c4cn[nH]c4)ccc3cn2)cn1 [Example 231, N-[(6-methoxypyridin-3-yl)methyl]-6-(1H-pyrazol-4-yl)isoquinolin-3-amine]
59%	CN1CCCCC1COc1cccc2cnc(N[C@H]3CC[C@H](O)CC3)nc12 (stereo partly drawn) [Example 252, trans-4-({8-[(1-methylpiperidin-2-yl)methoxy]quinazolin-2-yl}amino)cyclohexanol]
19%	CC(C)Oc1ccc(CNc2cc3cc(-c4cn[nH]c4)ccc3cn2)cc1CO [Example 234, [2-isopropoxy-5-({[6-(1H-pyrazol-4-yl)isoquinolin-3-yl]amino}methyl)phenyl]methanol]
36%	O=C(Nc1ccnn1Cc1ccccc1)c1cccc2cnc(N[C@H]3CC[C@H](O)CC3)nc12 [Example 311, N-(1-benzyl-1H-pyrazol-5-yl)-2-[(trans-4-hydroxycyclohexyl)amino]quinazoline-8-carboxamide]
85%	CC[C@@H](CO)NC(=O)c1ccc2cnc(NC3CCCC3)nc2c1 [Example 436, 2-(cyctopentylamino)-N-[(1S)-1-(hydroxymethyl)propyl]quinazoline-7-carboxamide]
51%	Cc1ccc(C(C)NC(=O)c2cccc3cnc(N[C@H]4CC[C@H](O)CC4)nc23)cn1 (stereo partly drawn) [Example 487, 2-[(trans-4-hydroxycyclohexyl)amino]-N-[1-(6-methylpyridin-3-yl)ethyl]quinazoline-8-carboxamide]
71%	Cc1cc(C)nc(NC(=O)c2cccc3cnc(N[C@H]4CC[C@H](O)CC4)nc23)n1 [Example 313, N-(4,6-dimethylpyrimidin-2-yl)-2-[(trans-4-hydroxycyclohexyl)amino]quinazoline-8-carboxamide]
46%	COc1ccccc1-c1ncc(CNc2cc3cc(-c4cn[nH]c4)ccc3cn2)cn1 [Example 232, N-{[2-(2-methoxyphenyl)pyrimidin-5-yl]methyl}-6-(1H-pyrazol-4-yl)isoquinolin-3-amine]

Same assay, conditions: JNK-1

SMILES	Ki
O=C(Cn1cnnn1)Nc1cc2cc(-c3cn[nH]c3)ccc2cn1 [Example 48, N-[6-(1H-pyrazol-4-yl)isoquinolin-3-yl]-2-(1H-tetrazol-1-yl)acetamide]	15 nM
O[C@H]1CC[C@H](Nc2ncc3ccc(OC4CCOC4)cc3n2)CC1 (stereo partly drawn) [Example 144, trans-4-{[7-(tetrahydrofuran-3-yloxy)quinazolin-2-yl]amino}cyclohexanol]	127 nM
c1cc2cnc(NC3CCOCC3)cc2cc1-c1cn[nH]c1 [Example 218, 6-(1H-pyrazol-4-yl)-N-(tetrahydro-2H-pyran-4-yl)isoquinolin-3-amine]	843 nM
C[C@@H](CO)NC(=O)c1cccc2cnc(N[C@H]3CC[C@H](NS(C)(=O)=O)CC3)nc12 [Example 131, N-[(1S)-2-hydroxy-1-methylethyl]-2-({trans-4-[(methylsulfonyl)amino]cyclohexyl}amino)quinazoline-8-carboxamide]	77 nM
FCCN[C@H]1CC[C@H](Nc2ncc3cccc(OC4CCOC4)c3n2)CC1 (stereo partly drawn) [Example 194, trans-N-(2-fluoroethyl)-N′-[8-(tetrahydrofuran-3-yloxy)quinazolin-2-yl]cyclohexane-1,4-diamine]	1460 nM
CC(C)Nc1ncc2cccc(OC3CCOCC3)c2n1 [Example 170, N-isopropyl-8-(tetrahydro-2H-pyran-4-yloxy)quinazolin-2-amine]	2150 nM
CS(=O)(=O)N[C@H]1CC[C@H](Nc2ncc3cccc(OC4CCOC4)c3n2)CC1 (stereo partly drawn) [Example 187, N-(trans-4-{[8-(tetrahydrofuran-3-yloxy)quinazolin-2-yl]amino}cyclohexyl)methanesulfonamide]	414 nM
CC(=O)OCC(C)(C)CC(=O)Nc1cc2cc(-c3cn[nH]c3)ccc2cn1 [Example 10, 2,2-dimethyl-4-oxo-4-{[6-(1H-pyrazol-4-yl)isoquinolin-3-yl]amino)butyl acetate]	42 nM
CCNC(=O)c1cccc2cnc(N[C@H]3CC[C@H](O)CC3)nc12 [Example 118, N-ethyl-2-[(trans-4-hydroxycyclohexyl)amino]quinazoline-8-carboxamide]	222 nM
NC[C@@H](NC(=O)c1ccc2cnc(N[C@H]3CC[C@H](O)CC3)nc2c1)c1ccccc1 [Example 101, N-[(1S)-2-amino-1-phenylethyl]-2-[(trans-4-hydroxycyclohexyl)amino]quinazoline-7-carboxamide]	94 nM
c1ccc2nc(CNc3cc4cc(-c5cn[nH]c5)ccc4cn3)cnc2c1 [Example 222, 6-(1H-pyrazol-4-yl)-N-(quinoxalin-2-ylmethyl)isoquinolin-3-amine]	2950 nM
CC(C)N[C@H]1CC[C@H](Nc2ncc3cccc(OC4CCOCC4)c3n2)CC1 [Example 191, trans-N-isopropyl-N′-[8-(tetrahydro-2H-pyran-4-yloxy)quinazolin-2-yl]cyclohexane-1,4-diamine]	698 nM
CS(=O)(=O)N[C@H]1CC[C@H](Nc2ncc3cccc(C(=O)N[C@@H]4CCC[C@H]4O)c3n2)CC1 (relative stereo) [Example 137, N-[(trans)-2-hydroxycyclopentyl]-2-({trans-4-[(methylsulfonyl)amino]cyclohexyl}amino)quinazoline-8-carboxamide]	263 nM
O=C(NC1CCOCC1)c1cccc2cnc(N[C@H]3CC[C@H](O)CC3)nc12 [Example 113, 2-[(trans-4-hydroxycyclohexyl)amino]-N-(tetrahydro-2H-pyran-4-yl)quinazoline-8-carboxamide]	271 nM
Cn1c(=O)c2c(ncn2CC(=O)Nc2cc3cc(-c4cn[nH]c4)ccc3cn2)n(C)c1=O [Example 52, 2-(1,3-dimethyl-2,6-dioxo-1,2,3,6-tetrahydro-7H-purin-7-yl)-N-[6-(1H-pyrazol-4-yl)isoquinolin-3-yl]acetamide]	15 nM
CC(C)(CO)NC(=O)c1cccc2cnc(N[C@H]3CC[C@H](O)CC3)nc12 [Example 104, 2-[(trans-4-hydroxycyclohexyl)amino]-N-(2-hydroxy-1,1-dimethylethyl)quinazoline-8-carboxamide]	66 nM
c1cnc2ccc(CNc3cc4cc(-c5cn[nH]c5)ccc4cn3)cc2c1 [Example 221, 6-(1H-pyrazol-4-yl)-N-(quinolin-6-ylmethyl)isoquinolin-3-amine]	2220 nM
COc1ccc2c(c1OC)CC[C@H]2C(=O)Nc1cc2cc(-c3cn[nH]c3)ccc2cn1 [Example 23, (R)-4,5-dimethoxy-N-[6-(1H-pyrazol-4-yl)isoquinolin-3-yl]indane-1-carboxamide]	2 nM

More lines, now with the values ahead:

Ki	SMILES
112 nM	O[C@H]1CC[C@H](Nc2ncc3cccc(OC4CCC4)c3n2)CC1 [Example 242, trans-4-{[8-(cyclobutyloxy)quinazolin-2-yl]amino}cyclohexanol]
730 nM	CCC[C@@H](CO)NC(=O)c1ccc2cnc(NC(C)C)nc2c1 [Example 406, N-[(1S)-1-(hydroxymethyl)butyl]-2-(isopropylamino)quinazoline-7-carboxamide]
422 nM	O=C(N[C@H](CO)Cc1ccccc1)c1ccc2cnc(NC3CCCCC3)nc2c1 [Example 395, N-[(1S)-1-benzyl-2-hydroxyethyl]-2-(cyclohexylamino)quinazoline-7-carboxamide]
166 nM	O=C(NCCCO)c1cccc2cnc(N[C@H]3CC[C@H](O)CC3)nc12 [Example 451, 2-[(trans-4-hydroxycyclohexyl)amino]-N-(3-hydroxypropyl)quinazoline-8-carboxamide]
516 nM	O=C(N[C@H]1CC[C@@H](CO)CC1)c1ccc2cnc(N[C@H]3CC[C@H](O)CC3)nc2c1 [Example 336, 2-[(trans-4-hydroxycyclohexyl)amino]-N-[cis-4-(hydroxymethyl)cyclohexyl]quinazoline-7-carboxamide]
112 nM	O=C(N[C@@H]1CCCC[C@@H]1CO)c1cccc2cnc(N[C@H]3CC[C@H](O)CC3)nc12 [Example 446, 2-[(trans-4-hydroxycyclohexyl)amino]-N-[(1R,2S)-2-(hydroxymethyl)cyclohexyl]quinazoline-8-carboxamide]
1720 nM	CC(C)c1ncc(NC(=O)c2ccc3cnc(N[C@H]4CC[C@H](O)CC4)nc3c2)cn1 [Example 359, 2-[(trans-4-hydroxycyclohexyl)amino]-N-(2-isopropylpyrimidin-5-yl)quinazoline-7-carboxamide]
735 nM	CC(C)[C@@H](CO)NC(=O)c1ccc2cnc(NC3CCCC3)nc2c1 [Example 407, 2-(cyclopentylamino)-N-[(1S)-1-(hydroxymethyl)-2-methylpropyl]quinazoline-7-carboxamide]
667 nM	O=C(N[C@@H]1COC[C@H]1O)c1ccc2cnc(N[C@H]3CC[C@H](O)CC3)nc2c1 [Example 404, 2-[(trans-4-hydroxycyclohexyl)amino]-N-[(3R,4S)-4-hydroxytetrahydrofuran-3-yl]quinazoline-7-carboxamide]
